Experimental findings from patent publication US20250040539A1, “COMPOSITION COMPRISING AN ANTIMICROBIAL AGENT AND A CARBOXAMIDE” (BASF SE, priority 2021, published 2025) are described below.

What all share (format): cell-based
In test [1] the test system is fungus Aspergillus brasiliensis DSM 1988. Nature of the test: Preservative activity in an enzyme (mannanase) solution of pH 6 with 2-phenoxyethanol (Example 1.4). As to conditions: for d0 [CFU/ml]: day 0 (inoculation); for d2 [CFU/ml]: day 2; for d7 [CFU/ml]: day 7; for d14 [CFU/ml]: day 14; for d15 [CFU/ml]: day 15 (after re-inoculation); for d22 [CFU/ml]: day 22; for d29 [CFU/ml]: day 29. The protocol: A enzyme solution of pH 6 containing the hydrolase mannanase of the following composition was used:
The samples were contaminated with the fungus Aspergillus brasiliensis DSM 1988.
The samples were inoculated with the fungus at day 0 and 15 to obtain 1-3×10E+05 CFU/ml inoculation in the test sample consisting of the above-defined enzyme solution and stored at 25° C. for 29 days. CFU was determined at days 0, 2, 7, 14, 15 (after re-inoculation), 22 and 29 (abbreviated d0, d2, d7, d14, d15, d22, d29).
Any CFU value at d2, d7, d14, d22 or d29 obtained with an enzyme solution sample of the invention containing 2-phenoxyethanol and amide (enzyme solution+0.7% PE+0.07% of amide) lower than the respective value of the comparative example (enzyme solution+0.7% by weight of 2-phenoxyethanol) indicates a better performance of the inventive combination of 2-phenoxyethanol with the amide.
The amide used was N,N-dimethyl-n-decanoyl amide (=n-decanoyl-N,N-dimethylamide).

The subject of test [2] is fungal mix (including yeasts and molds): Aspergillus brasiliensis DSM 1988, Rhodotorula mucilaginosa DSM 13621, Yarrowia lipolytica DSM 8218. Nature of the test: Preservative activity of a basic composition (10% PG in water, pH 7) with 2-phenoxyethanol against fungal contamination (Example 1.1). As to conditions: 25° C.; for d21 [CFU/ml]: day 21. The protocol: An aqueous composition of pH 7 comprising 10% by weight of propyleneglycol (PG) as organic solvent, 0.36% by weight of 2-phenoxyethanol (PE) as antimicrobial and 0.04% by weight of the amide listed in the below table was tested for its preserving activity against fungal contamination (the percentages are weight percent and relate to the total weight of the composition). For this purpose, the samples were contaminated with a fungal mix (including yeasts and molds) consisting of: • Aspergillus brasiliensis DS M 1988 • Rhodotorula mucilaginosa DSM 13621 • Yarrowia lipolytica DS M 8218
To control the efficacy, following control compositions were tested: • “Reference”, consisting of only 10% by weight of propylene glycol in water • “Comparative 1” containing 10% by weight of propylene glycol and amide in the given concentration, but no 2-phenoxyethanol • […] in the given concentration, but no amide.
The samples were inoculated with the fungal mix at day 0, 7 and 14 to obtain a cell density in the range of 1-3×10E+05 CFU/ml (CFU=colony forming units) in the test samples (compositions listed in the below table) and stored at 25° C. for 21 days.
CFU was determined before re-inoculation at days 7 and 14, and on day 21.

Test [3] concerns fungal mix: Aspergillus brasiliensis DSM 1988, Rhodotorula mucilaginosa DSM 13621, Yarrowia lipolytica DSM 8218. As to the kind of experiment: Preservative activity in a manual dishwashing composition (MDW, pH 7.1) with 2.0% 2-phenoxyethanol against fungal mix (Example 1.3). As to conditions: for d7 [CFU/ml]: day 7; for d14 [CFU/ml]: day 14; for d21 [CFU/ml]: day 21. The procedure:
(§1) A manual dish wash detergent (MDW) of pH 7.1 containing the following components was used:
(§2) The samples were contaminated with a fungal mix consisting of: • Aspergillus brasiliensis DSM 1988 • Rhodotorula mucilaginosa DSM 13621 • Yarrowia lipolytica DSM 8218
The samples were inoculated with the fungal mix at day 0 and 7 to obtain 1-3×10E+05 CFU/ml inoculation in the test sample consisting of the above-defined dish wash detergent MDW and stored at 25° C. for 21 days. CFU was determined before re-inoculation at day 7, and on days 14 and 21.
Any CFU value at d7, d14 or d21 obtained with a MDW sample of the invention containing 2-phenoxyethanol and amide (MDW+2.0% PE+1% of Amide) lower than the respective value of the “comparative 2” example (MDW+2.0% by weight of 2-phenoxyethanol) indicates a better performance of the inventive combination of 2-phenoxyethanol with the amide.

Test [4] has as its system bacterial mix: Escherichia coli DSM 1576, Alcaligenes faecalis DSM 13644, Pseudomonas aeruginosa ATCC 15442, Staphylococcus aureus ATCC 6538, Burkholderia …. Nature of the test: Preservative activity in a manual dishwashing composition (MDW, pH 7.1) with 2.0% 2-phenoxyethanol against bacterial mix (Example 2.4). To be noted: MDW + 2.0% PE, no amide (Comparative 2). The procedure:
as §1
The samples were contaminated with a bacterial mix consisting of: • Escherichia coli DSM 1576 • Alcaligenes faecalis DSM 13644 • Pseudomonas aeruginosa ATCC 15442 • Staphylococcus aureus ATCC 6538 • Burkholderia cepacia DSM 7288 • Pseudomonas putida DSM 12735
The samples were inoculated with the bacterial mix at day 0 and 7 to obtain 10E+06 to 10E+07 CFU/ml inoculation in the test sample and stored at 25° C. for 21 days. CFU was determined before re-inoculation at day 7 and on days 14 and 21.
Any CFU value at day 7 (d7), day 14 (d14) or day 21 (d21) obtained with a sample according to the invention containing 2-phenoxyethanol and amide (MDW+2.0% PE+x % Amide) lower than the respective value of the “comparative 2” example (MOW+2.0% by weight of 2-phenoxyethanol) indicates a better performance.

Test [5] has as its system fungal mix: Aspergillus brasiliensis DSM 1988, Rhodotorula mucilaginosa DSM 13621, Yarrowia lipolytica DSM 8218. Nature of the test: Preservative activity in a hard surface cleaner composition (HSC, pH 7.0) with 2-phenoxyethanol against fungal mix (Example 1.5). As to conditions: HSC + 1.35% PE, no amide (Comparative 2). The protocol:
A manual hard surface cleaner (HSC) of pH 7.0 containing the following components was used:
as §2
The samples were inoculated with the fungal mix at day 0 and 7 to obtain 1-3×10E+05 CFU/ml inoculation in the test sample consisting of the above-defined hard surface cleaner HSC and stored at 25° C. for 21 days. CFU was determined before re-inoculation at day 7, and on days 14 and 21.

[6] abbreviates: Enzyme solution + 0.7% PE + 0.07% amide.
Setting [7] is: MDW + 1.0% amide, no PE (Comparative 1).
[8] abbreviates: Enzyme solution + 0.7% PE, no amide (Comparative).
[9] abbreviates: MDW + 2.0% PE, no amide (Comparative 2).

Turning to `CCCCCCCCCC(=O)N(C)C` [n-Decanoyl-N,N-dimethylamide], the “d0 [CFU/ml]” value in test [1] (Enzyme solution + 0.7% PE + 0.07% amide (N,N-dimethyl-n-decanoyl amide)) is 110,000 CFU/ml. In test [1] (setting [6]), the “d2 [CFU/ml]” value is 80,000 CFU/ml, the “d7 [CFU/ml]” value is recorded as 240 CFU/ml, the “d14 [CFU/ml]” value was found to be 30 CFU/ml and the “d15 [CFU/ml]” value is 300,000 CFU/ml. Besides, in test [1] (setting [6]), the “d22 [CFU/ml]” value is given as 14,000 CFU/ml and the “d29 [CFU/ml]” value was found to be 70 CFU/ml. The “d7 [CFU/ml]” value in test [2] (10% PG + 0.36% PE + 0.04% Amide in water, pH 7, fungal mix inoculated at day 0, 7 and 14 (1-3x10E+05 CFU/ml), day 7 before re-inoculation) is reported as less than 10 CFU/ml. In addition, the “d14 [CFU/ml]” value in test [2] (10% PG + 0.36% PE + 0.04% Amide in water, pH 7, fungal mix inoculated at day 0, 7 and 14, day 14 before re-inoculation) is listed as less than 10 CFU/ml. Besides, in test [2] (10% PG + 0.36% PE + 0.04% Amide in water, pH 7, fungal mix inoculated at day 0, 7 and 14), the “d21 [CFU/ml]” value is reported as less than 10 CFU/ml. Further, in test [3] (setting [7]), the “d7 [CFU/ml]” value is 50,500 CFU/ml, the “d14 [CFU/ml]” value was 97,500 CFU/ml and the “d21 [CFU/ml]” value is 83,000 CFU/ml. Also, in test [3] (MDW + 2.0% PE + 1.0% amide), the “d7 [CFU/ml]” value was 19,000 CFU/ml, the “d14 [CFU/ml]” value is recorded as 10,000 CFU/ml and the “d21 [CFU/ml]” value is on record as 5,000 CFU/ml.
Consider `OCCOc1ccccc1` [PE, 2-phenoxyethanol, reference compound], for which the “d0 [CFU/ml]” value in test [1] (setting [8]) is reported as 110,000 CFU/ml. Further, the “d2 [CFU/ml]” value in test [1] (setting [8]) was 92,000 CFU/ml. The “d7 [CFU/ml]” value is recorded as 29,000 CFU/ml in test [1] (setting [8]); 10,000 CFU/ml in test [2] (10% PG + 0.4% PE, no amide (Comparative 2), fungal mix inoculated at day 0, 7 and 14, day 7); 330 CFU/ml in test [4] (day 7); 27,500 CFU/ml in test [3] (setting [9]); 37,000 CFU/ml in test [5] (day 7). Also, the “d14 [CFU/ml]” value in test [1] (setting [8]) is 21,000 CFU/ml; in test [2] (10% PG + 0.4% PE, no amide (Comparative 2), fungal mix inoculated at day 0, 7 and 14, day 14) it was 16,000 CFU/ml; in test [4] (day 14), 2,800 CFU/ml; in test [3] (setting [9]), 22,000 CFU/ml; in test [5] (day 14), 36,000 CFU/ml. In addition, the “d15 [CFU/ml]” value in test [1] (setting [8]) is on record as 300,000 CFU/ml. In addition, the “d22 [CFU/ml]” value in test [1] (setting [8]) is listed as 67,000 CFU/ml. For the same molecule, the “d29 [CFU/ml]” value in test [1] (setting [8]) is on record as 100,000 CFU/ml. Besides, the “d21 [CFU/ml]” value in test [2] (10% PG + 0.4% PE, no amide (Comparative 2), fungal mix inoculated at day 0, 7 and 14) is 38,500 CFU/ml; in test [4] (day 21) it was 38,500 CFU/ml; in test [3] (setting [9]), 18,000 CFU/ml; in test [5] (day 21) it was 3200 CFU/ml.
